Active and inactive are the calls of the source. The rule behind the calls is not given here.
Columns and labels:
[1] = test system: Oryctolagus cuniculus; test: Hypotensive effect in New Zealand white rabbits assessed as reduction in intraocular pressure at 100 uM administered topically in presence of reserpine and measured every hour for 8 hrs relative to control; format: functional; parameters: scale not given: the % may be the effect or the level left
[2] = test system: Oryctolagus cuniculus; test: Hypotensive effect in New Zealand white rabbits assessed as reduction in intraocular pressure at 100 uM administered topically in presence of 6-hydroxydopamine and measured every hour for 8 hrs relative to control; format: functional; parameters: scale not given: the % may be the effect or the level left
[3] = test system: Oryctolagus cuniculus; test: Hypotensive effect in normotensive chinchilla rabbits assessed as maximal effective time administered once to both eyes and measured every hour for 6 hrs by automatic veterinary tonometer based assay; format: functional
[4] = test system: Oryctolagus cuniculus; test: Hypotensive effect in normotensive chinchilla rabbits assessed as reduction in intraocular pressure administered once to both eyes and measured every hour for 6 hrs by automatic veterinary tonometer based assay relative to control; format: functional; parameters: concentration or dose not given beside the values
[5] = test system: Oryctolagus cuniculus; test: Hypotensive effect in normotensive chinchilla rabbits assessed as reduction in intraocular pressure administered once to both eyes and measured after 6 hrs by automatic veterinary tonometer based assay relative to control; format: functional; parameters: scale not given: the % may be the effect or the level left
[6] = test system: Oryctolagus cuniculus; test: Hypotensive effect in normotensive chinchilla rabbits assessed as reduction in intraocular pressure administered once to both eyes and measured after 6 hrs by automatic veterinary tonometer based assay; format: functional, organism-based

Compound: COc1ccc2[nH]cc(CCNC(C)=O)c2c1 [MELATONIN]
- Activity [1]: 5%
- Activity [2]: 5%
- Time [3]: 3 h
- Activity [4]: 12%

Compound: CCOC(=O)Nc1ccc2c(c1)C(CC#N)C(=O)N2 (stereo unspecified)
- Time [3]: 5 h
- Activity [4]: 8%

Compound: COC(=O)Nc1ccc2[nH]cc(CCNC(C)=O)c2c1
- Activity [1]: 5%
- Activity [2]: 5%

Compound: COC(=O)Nc1ccc2c(c1)C(CC#N)C(=O)N2 (stereo unspecified)
- Activity [5]: 17%
- Time [3]: 2 h
- Activity [4]: 24%

Compound: CC(C)(C)NC[C@H](O)COc1nsnc1N1CCOCC1 [TIMOLOL]
- Activity [6]: inactive
- Time [3]: 3 h
- Activity [4]: 18%

Compound: COC(=O)Nc1ccc2c(c1)C(CC(=O)O)C(=O)N2 (stereo unspecified)
- Time [3]: 3 h
- Activity [4]: 12%

Source: ChEMBL document CHEMBL5247666, “The rational design of novel 5-amino-2-oxindole derivatives with antiglaucomic activity” (2023)
